Entries after “also recorded” stand apart in the source; their conditions may differ. Read-outs that look alike come from different tables or passages of the source. Each block holds one molecule with its values, some of them ahead of it.
Assays:
[1] = cited from earlier work; for ocular hypotensive activity: in vivo
[2] = test system: intraocular pressure in the dog; assay: Dog intraocular pressure by applanation pneumatonometry; assay type: in vivo; details: 0.1%, 25 μl to ocular surface
Method: The effects of certain of the compounds of the working examples on intraocular pressure are also measured. The compounds of Examples 3 and 7 are prepared at 0.1% w/v concentration in a vehicle comprising 0.1% polysorbate 80 and 10 mM tris (hydroxy methyl) aminomethane hydrochloride (TRIS) base. Dogs are treated by administering 25 μl to the ocular surface, while the contralateral eye receives vehicle as a control. Intraocular pressure is measured by applanation pneumatonometry. Dog intraocular pressure is measured immediately before drug administration and at 2, 4, 6 and 24 hours thereafter. Each of the compounds tested lower intraocular pressure in the dog model.

ocular surface = details: cited from earlier work
FP receptor = FP receptor (Felis catus, UniProt A0ABI7XJ69); assay: FP activity, contraction of the isolated feline iris sphincter; details: read-out: EC50 (nM) FP
EP4 = EP4 (Oryctolagus cuniculus, UniProt Q28691); details: for IC25: read-out: IC25 EP4
EP3 = EP3 activity in isolated smooth muscle preparations; details: read-out: EC50 (nM) EP3
DP/EP2 = DP/EP2 activity in isolated smooth muscle preparations; details: read-out: EC50 (nM) DP/EP2
TP = target: T1, TP (Rattus norvegicus, UniProt P34978)
T1 sequence (P34978 1-341): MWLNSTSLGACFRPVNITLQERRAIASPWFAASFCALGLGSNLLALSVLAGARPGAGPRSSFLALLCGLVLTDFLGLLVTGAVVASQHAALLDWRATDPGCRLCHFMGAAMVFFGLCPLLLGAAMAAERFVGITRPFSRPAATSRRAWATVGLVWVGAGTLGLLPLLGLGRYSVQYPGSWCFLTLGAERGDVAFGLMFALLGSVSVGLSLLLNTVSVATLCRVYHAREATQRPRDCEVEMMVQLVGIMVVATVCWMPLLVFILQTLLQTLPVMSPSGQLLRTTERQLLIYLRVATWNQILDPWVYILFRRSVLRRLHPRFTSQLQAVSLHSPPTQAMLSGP

EP1 = EP1 activity in isolated smooth muscle preparations; details: read-out: EC50 (nM) EP1

Chain of EP4 (Q28691 whole entry): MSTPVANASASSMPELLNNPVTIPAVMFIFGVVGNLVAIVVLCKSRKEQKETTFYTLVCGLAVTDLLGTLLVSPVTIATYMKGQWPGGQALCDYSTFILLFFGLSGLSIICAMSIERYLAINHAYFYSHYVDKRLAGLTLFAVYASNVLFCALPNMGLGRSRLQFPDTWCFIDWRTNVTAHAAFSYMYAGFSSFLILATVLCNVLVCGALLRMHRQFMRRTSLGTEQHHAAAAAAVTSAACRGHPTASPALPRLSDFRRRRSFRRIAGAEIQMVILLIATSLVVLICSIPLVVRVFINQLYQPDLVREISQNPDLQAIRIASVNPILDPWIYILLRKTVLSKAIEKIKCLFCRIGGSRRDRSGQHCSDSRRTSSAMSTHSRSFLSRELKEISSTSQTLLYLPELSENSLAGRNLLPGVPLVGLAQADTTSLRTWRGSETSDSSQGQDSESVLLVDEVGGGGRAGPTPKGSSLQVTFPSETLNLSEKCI
Chain of FP receptor (A0ABI7XJ69 1-366): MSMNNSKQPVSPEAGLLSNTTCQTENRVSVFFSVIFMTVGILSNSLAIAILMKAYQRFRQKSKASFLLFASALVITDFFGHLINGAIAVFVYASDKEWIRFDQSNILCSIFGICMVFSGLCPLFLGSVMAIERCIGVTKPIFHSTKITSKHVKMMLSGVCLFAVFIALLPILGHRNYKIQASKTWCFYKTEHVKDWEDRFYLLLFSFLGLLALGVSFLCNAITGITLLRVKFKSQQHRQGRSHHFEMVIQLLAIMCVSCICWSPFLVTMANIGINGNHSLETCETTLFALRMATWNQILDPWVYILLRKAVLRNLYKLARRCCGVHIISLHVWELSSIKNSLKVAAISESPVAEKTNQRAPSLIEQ

SMILES: CCCCC[C@@H](/C=C/[C@@H]1[C@@H](C/C=C\CCCC(=O)O)[C@@H](O)C[C@H]1OC(=O)C(C)(C)C)OC(=O)C(C)(C)C [11,15-dipivaloyl PGF2α]
ocular hypotensive activity [1]: known to have ocular hypotensive activity

SMILES: COC(=O)CCC/C=C\C[C@@H]1[C@@H](CNP(=O)(CCc2ccccc2)OC)[C@H](O)C[C@@H]1O (some centres unmarked) [Example 7]
Decrease in IOP (mm Hg) at 2 HR [2]: -3.3 mm Hg
Decrease in IOP (mm Hg) at 4 HR [2]: -4.1 mm Hg
Decrease in IOP (mm Hg) at 6 HR [2]: -5.1 mm Hg
Decrease in IOP (mm Hg) at 24 HR [2]: -3.5 mm Hg

SMILES: CCCCC[C@H](O)/C=C/[C@@H]1[C@@H](CCCCCCC(=O)O)[C@@H](O)C[C@H]1O [PGF1α]
ocular hypotensive activity [1]: highly effective ocular hypotensive agents

SMILES: CCCCC[C@H](O)/C=C/[C@@H]1[C@@H](C/C=C\CCCC(=O)O)[C@@H](O)C[C@H]1O [PGF2α]
ocular surface side effects (ocular surface; in vivo): ocular surface (conjunctival) hyperemia and foreign-body sensation

EC50 (FP receptor): > 10000 nM
SMILES: O=C(O)CCC/C=C\C[C@@H]1[C@@H](COP(=O)(O)CCc2ccccc2)[C@H](O)C[C@@H]1O

SMILES: CCCCC[C@H](O)/C=C/[C@H]1[C@H](O)CC(=O)[C@@H]1C/C=C\CCCC(=O)O [PGE2]
ocular hypotensive activity [1]: possess ocular hypotensive activity; also recorded: highly effective ocular hypotensive agents

SMILES: COP(=O)(CCc1ccccc1)NC[C@@H]1[C@@H](C/C=C\CCCC(=O)O)[C@@H](O)C[C@H]1O (some centres unmarked)
EC50 (FP receptor): 2140 nM
FP/EP4 Ratio (EP4): 2.8
IC25 (EP4): 0.767 µM

SMILES: CCOP(=O)(CCc1ccccc1)OC[C@@H]1[C@@H](C/C=C\CCCC(=O)O)[C@@H](O)C[C@H]1O (some centres unmarked)
EC50 (FP receptor): > 10000 nM
FP/EP4 Ratio (EP4): > 0.15
IC25 (EP4): 66.3 µM

EC50 (EP3): > 10000 nM
EC50 (FP receptor): > 10000 nM
EC50 (DP/EP2): > 10000 nM
FP/EP4 Ratio (EP4): > 27
IC25 (EP4): 0.365 µM
SMILES: COC(=O)CCC/C=C\C[C@@H]1[C@@H](COP(=O)(O)CCc2ccccc2)[C@H](O)C[C@@H]1O

SMILES: COP(=O)(CCc1ccccc1)OC[C@@H]1[C@@H](C/C=C\CCCC(=O)O)[C@@H](O)C[C@H]1O (stereo partly drawn) [Example 3, 7-[3α,5α-Dihydroxy-2-β-[[methoxy(2-phenylethyl)phosphinyl]oxymethyl]cyclopentyl]-5Z-heptenoic acid]
Decrease in IOP (mm Hg) at 2 HR [2]: -1.1 mm Hg
Decrease in IOP (mm Hg) at 4 HR [2]: -2.9 mm Hg
Decrease in IOP (mm Hg) at 6 HR [2]: -3.5 mm Hg
Decrease in IOP (mm Hg) at 24 HR [2]: 0.4 mm Hg

SMILES: COC(=O)CCC/C=C\C[C@@H]1[C@@H](CNP(=O)(CCc2ccccc2)OC)[C@H](O)C[C@@H]1O (some centres unmarked) [drawing 14]
EC50 (EP3): > 10000 nM
EC50 (FP receptor): 252 nM
EC50 (TP): > 10 µM

SMILES: CCCCC[C@H](O)/C=C/[C@@H]1[C@@H](C/C=C\CCCC(=O)OC(C)C)[C@@H](O)C[C@H]1O [isopropyl ester of PGF2α]
ocular surface side effects (ocular surface; topical ocular use, humans): ocular surface (conjunctival) hyperemia and foreign-body sensation
hypotensive potency versus the parent compound PGF2α ([1]; attributed to more effective penetration through the cornea): significantly greater hypotensive potency than the parent compound
ocular hypotensive activity [1]: the most potent ocular hypotensive agent ever reported

SMILES: COP(=O)(CCc1ccccc1)OC[C@@H]1[C@@H](C/C=C\CCCC(=O)O)[C@@H](O)C[C@H]1O (some centres unmarked) [drawing 10]
EC50 (EP3): 575 nM
EC50 (EP1): 10000 nM
EC50 (FP receptor): 195 nM
EC50 (DP/EP2): > 10000 nM
EC50 (TP): > 10 µM

Source: patent US5658897A, “Cyclopentane(ene) heptanoic or cyclopentane(ene) heptenoic acid, 2-hydrocarbyl phosphinyloxyalkyl or phosphonamidoalkyl as therapeutic agents” (Allergan, priority 1996, dated 1997)
